According to patent US8852664B2, “Neo-menthyl derivatives as flavor materials” (Symrise AG, priority 2008, dated 2014):

Experiments:
Type in all cases: in vivo
[1] = Saltiness of a stock tasted against a reference series of the same stock with different salt contents; conditions: reference series 0.2%, 0.4%, 0.5% salt
Description: In another test, the saltiness of a stock having a salt content of 0.3% and 5 ppm of an equimolar mixture of 1-(3-hydroxy-propyl)-3-((1S,2S,5R)-2-isopropyl-5-methyl-cyclohexyl)-urea (3) and 1-(3-hydroxy-propyl)-3-((1R,2R,5S)-2-isopropyl-5-methyl-cyclohexyl)-urea (4) added was tasted. The testers evaluated this stock against a reference series of this same stock with salt contents of 0.2%, 0.3%, 0.4% and 0.5%. The saltiness of the stock with a salt content of 0.3% and 5 ppm of an equimolar mixture of 1-(3-hydroxy-propyl)-3-((1S,2S,5R)-2-isopropyl-5-methyl-cyclohexyl)-urea (3) and 1-(3-hydroxy-propyl)-3-((1R,2R,5S)-2-isopropyl-5-methyl-cyclohexyl)-urea (4) added was evaluated with a saltiness of 0.36% on average.
In another test, the saltiness of a stock having a salt content of 0.3% and 3 ppm of an equimolar mixture of (3-methoxy-propyl)-carbamic acid (1S,2S,5R)-2-isopropyl-5-methyl-cyclohexyl ester (9) and (3-methoxy-propyl)-carbamic acid (1R,2R,5S)-2-isopropyl-5-methyl-cyclohexyl ester (10) was tasted. The testers evaluated this stock against a reference series of this same stock with salt contents of 0.2%, 0.3%, 0.4% and 0.5%. […]

[2] = Flavor profile determined by a trained panel of at least 5 testers; conditions: trained panel of at least 5 testers, tasting against a 0.5% strength salt and a 0.5% strength sugar solution
Experimental: The flavor profiles were determined by a trained panel of at least 5 testers by tasting against a 0.5% strength salt and a 0.5% strength sugar solution

[3] = Flavor comparison in American beef extract base (FIG. 1), panel of trained testers; conditions: 1 ppm of 1:1 mixture in American beef extract base vs base with 0.05 wt. % MSG
Description: This is also shown by the spider diagram appended as FIG. 1, in which an American beef extract as a base is compared with (i) such a base having 1 ppm of a 1:1 mixture of 1-((1S,2S,5R)-2-isopropyl-5-methyl-cyclohexyl)-3-(3-methoxy-propyl)-urea (1) and 1-((1R,2R,5S)-2-isopropyl-5-methyl-cyclohexyl)-3-(3-methoxy-propyl)-urea (2) added and (ii) with such a base having 0.05 wt. % of MSG (sodium glutamate) added. The observations above apply accordingly for all mixtures to be used according to the invention.
The flavor of a 0.5% American beef extract as the base (solid dark line) was compared with the aid of tasting by a panel of trained testers with the flavor firstly of such a base to which 1 ppm of a mixture of 1-((1S,2S,5R)-2-isopropyl-5-methyl-cyclohexyl)-3-(3-methoxy-propyl)-urea (1) and 1-((1R,2R,5S)-2-Isopropyl-5-methyl-cyclohexyl)-3-(3-methoxy-propyl)-urea (2) was added (solid light line), and secondly such a base to which 0.05 wt. % MSG was added (dotted line).
(§1) The testers evaluated the strength of the test directions indicated, in each case by specifying marks on a scale of from 0 (no corresponding flavor) to 8 (very strong corresponding flavor). The average values of the respective marks are represented.

[4] = Flavor comparison in chicken aroma base (FIG. 2), panel of trained testers; conditions: 1 ppm in chicken aroma base vs base with 0.2 wt. % standard aroma (containing MSG)
Description: Here, a base for a chicken aroma is compared with (i) such a base having 1 ppm of the pure-enantiomer compound 1-((1S,2S,5R)-2-isopropyl-5-methyl-cyclohexyl)-3-(3-methoxy-propyl)-urea (1) added and (ii) with such a base having 0.2 wt. % of a standard aroma (containing MSG) added.
The flavor of the chicken base (solid dark line) was compared with the aid of tasting by a panel of trained testers with the flavor firstly of such a base to which 1 ppm of 1-((1S,2S,5R)-2-Isopropyl-5-methyl-cyclohexyl)-3-(3-methoxy-propyl)-urea (1) was added (solid light line), and secondly such a base to which 0.2 wt. % of a standard chicken aroma containing sodium glutamate was added (dotted line).
as §1

Row | Compound | saltiness evaluated on average ([1]; stock with salt content 0.3% and 5 ppm added) [%] | Flavor Profile [2] | flavor compared with sodium glutamate (MSG) [3] | flavor character compared with standard aroma containing MSG [4] | saltiness evaluated on average ([1]; stock with salt content 0.3% and 3 ppm added) [%]
1 | 1-(3-Hydroxy-propyl)-3-((1S,2S,5R)-2-isopropyl-5-methyl-cyclohexyl)-urea (3)/1-(3-Hydroxy-propyl)-3-((1R,2R,5S)-2-isopropyl-5-methyl-cyclohexyl)-urea (4) [Synthesis Example 2] | 0.36 | fishy, salty, weakly umami | – | – | –
2 | 1-((1S,2S,5R)-2-Isopropyl-5-methyl-cyclohexyl)-3-(3-methoxy-propyl)-urea (1)/1-((1R,2R,5S)-2-isopropyl-5-methyl-cyclohexyl)-3-(3-methoxy-propyl)-urea (2) [Synthesis Example 1] | – | sweet, salty, metallic, umami | clear umami flavor very closely approximating sodium glutamate (MSG), which also significantly enhances the saltiness of the base but without tasting unpleasantly sweet | – | –
3 | COCCCNC(=O)N[C@H]1C[C@H](C)CC[C@H]1C(C)C [(1), 1-((1S,2S,5R)-2-isopropyl-5-methyl-cyclohexyl)-3-(3-methoxy-propyl)-urea] | – | salty, long-lasting, umami, no by notes | – | genuine MSG-like character | –
4 | (3-Methoxy-propyl)-carbamic acid (1S,2S,5R)-2-isopropyl-5-methyl-cyclohexyl ester (9) and (3-methoxy-propyl)-carbamic acid (1R,2R,5S)-2-isopropyl-5-methyl-cyclohexyl ester (10) [Synthesis Example 5] | – | sweet, salty, umami, slightly bitter | – | – | 0.35
